Here are results for 3 molecules from publication PMC12591484 (PLOS One, 2025).

The target of experiment [1] is T1, α1β3γ2I242C GABAA receptors (Homo sapiens, UniProt P14867+P18507+P28472, I281C).
T1 construct: expressed in transfected cells; host or cells: Xenopus oocytes injected with capped mRNAs mixed 1α:1β:5γ
Nature of the experiment: Drug protection from pCMBS modification (SCAMP). It is filed as cell-based. Set-up: key to SCAMP result, γ2– (M1) I242: +: Mutant-function studies are deemed positive when bulky mutations (mostly tryptophans) at the site significantly reduce positive modulation by anesthetics; -: Negative results are indicated by “–“ symbols. As to conditions: for SCAMP result, γ2– (M1) I242: results of this study, etomidate cell also cites [9]. The method, then: (§1) Experiments were performed in ND-96 buffer at room temperature (20–22°C). Oocytes were placed in a low-volume (30µl) flow chamber and impaled with borosilicate microelectrodes filled with 3M KCl (resistance 0.5–3 MΩ) and voltage-clamped at −50 mV (model OC-725C; Warner Instruments, Hamden, CT, USA). Superfusate solutions in ND-96 were delivered at 2 ml/min from glass syringe reservoirs via computer-controlled valves (VC-8; Warner Instruments), a micro-manifold (ALA-VM8; ALA Scientific Instruments, Farmingdale, NY, USA), and PTFE tubing. Currents were digitized at 200 Hz on a computer running ClampEx v8.0 software (Molecular Devices, San Jose, CA, USA). Digitized traces were filtered with a 10-Hz low-pass Bessel function, leak corrected and analyzed for peak amplitude off-line using Clampfit v8 software (Molecular Devices).
(§2) Drug protection from pCMBS modification was assessed under pCMBS exposure conditions that produced approximately half of the maximal modification ratio for each mutant receptor, and a least a value of 3. This approach balanced the magnitude of functional modification signals (smaller with less pCMBS exposure) against the challenge of using a reversibly bound ligand to competitively block an irreversible covalent cysteine-modifying reaction. […] Each oocyte was used in a single SCAMP experiment. […] Etomidate was used as a positive control for anesthetic protection in α1M236C and β3M286C mutants and as a negative control in α1S270C, α1A291C, β3L231C, γ2S301C, γ2I242C, and γ2L246C mutants. R-mTFD-MPAB was used as a positive control in α1S270C, α1A291C, β3L231C, and γ2LS301C mutants and as a negative control in α1M236C and β3M286C mutants. For each cysteine mutant and protective drug combination, five oocytes were studied.
Non-linear least squares fits and statistical analyses were performed in Prism 10.4.0. (GraphPad Software, San Diego, CA, USA). […] Protection (steric inhibition of pCMBS modification) was inferred when anesthetics produced significant reductions in modification ratios relative to control (no anesthetic) values. […]

Experiment [2] deals with α1β3γ2L GABAA receptors, bulky mutation at γ2I242. Set-up: key to Mutant-function result, γ2– (M1) I242: +: Mutant-function studies are deemed positive when bulky mutations (mostly tryptophans) at the site significantly reduce positive modulation by anesthetics; -: Negative results are indicated by “–“ symbols. Particulars: cited from earlier work.
For experiment [3], the system named is α1β3γ2L GABAA receptors, bulky mutation at α1S270. Set-up: key to Mutant-function result, α1+ (M2, M3) S270: +: Mutant-function studies are deemed positive when bulky mutations (mostly tryptophans) at the site significantly reduce positive modulation by anesthetics; -: Negative results are indicated by “–“ symbols. As to conditions: cited from earlier work.
Experiment [4] concerns α1β3γ2L GABAA receptors, bulky mutation at β3N265. Set-up: method as in PMID 30696720, PMID 32247113; key: +: Mutant-function studies are deemed positive when bulky mutations (mostly tryptophans) at the site significantly reduce positive modulation by anesthetics; -: Negative results are indicated by “–“ symbols. As to conditions: cited from earlier work.
Experiment [5] has as its system α1β3γ2L GABAA receptors, bulky mutation at γ2L246. Set-up: key: +: Mutant-function studies are deemed positive when bulky mutations (mostly tryptophans) at the site significantly reduce positive modulation by anesthetics; -: Negative results are indicated by “–“ symbols. As to conditions: cited from earlier work.
For experiment [6], the target named is T2, α1A291Cβ3γ2L GABAA receptors (Homo sapiens, UniProt P14867+P18507+P28472, A318C).
T2 construct: expressed in transfected cells; host or cells: Xenopus oocytes injected with capped mRNA, 1α:1β:5γ
Nature of the experiment: Drug protection from pCMBS modification (SCAMP). It is filed as cell-based. As to conditions: for modification ratio with anesthetic present, single oocyte example (Fig 2): 3 mM GABA + 10 µM pCMBS for 90 s plus […] etomidate. As for the experimental part: as §1, §2
Non-linear least squares fits and statistical analyses were performed in Prism 10.4.0. (GraphPad Software, San Diego, CA, USA). […] Protection (steric inhibition of pCMBS modification) was inferred when anesthetics produced significant reductions in modification ratios relative to control (no anesthetic) values. The statistical significance threshold was p < 0.05.

Experiment [7] deals with α1β3γ2L GABAA receptors, bulky mutation at α1M236. Set-up: key: +: Mutant-function studies are deemed positive when bulky mutations (mostly tryptophans) at the site significantly reduce positive modulation by anesthetics; -: Negative results are indicated by “–“ symbols. Particulars: cited from earlier work.
The subject of experiment [8] is α1β3γ2L GABAA receptors, bulky mutation at γ2S280. Set-up: method as in PMID 30696720, PMID 32247113; key: +: Mutant-function studies are deemed positive when bulky mutations (mostly tryptophans) at the site significantly reduce positive modulation by anesthetics; -: Negative results are indicated by “–“ symbols. As to conditions: cited from earlier work.
Experiment [9] relates to α1β3γ2L GABAA receptors, bulky mutation at γ2S301. Set-up: method as in PMID 30696720; key: +: Mutant-function studies are deemed positive when bulky mutations (mostly tryptophans) at the site significantly reduce positive modulation by anesthetics; -: Negative results are indicated by “–“ symbols. Particulars: cited from earlier work.
The subject of experiment [10] is α1β3γ2L GABAA receptors, bulky mutation at β3L231. Set-up: key: +: Mutant-function studies are deemed positive when bulky mutations (mostly tryptophans) at the site significantly reduce positive modulation by anesthetics; -: Negative results are indicated by “–“ symbols. As to conditions: cited from earlier work.
Experiment [11] has as its system α1β3γ2L GABAA receptors, bulky mutation at β3M227. Set-up: key: +: Mutant-function studies are deemed positive when bulky mutations (mostly tryptophans) at the site significantly reduce positive modulation by anesthetics; -: Negative results are indicated by “–“ symbols. Particulars: cited from earlier work.
In experiment [12] the test system is α1β3γ2L GABAA receptors, bulky mutation at α1A291. Set-up: method as in PMID 30696720; key: +: Mutant-function studies are deemed positive when bulky mutations (mostly tryptophans) at the site significantly reduce positive modulation by anesthetics; -: Negative results are indicated by “–“ symbols. As to conditions: cited from earlier work.
Setting [13] is: α1A291Cβ3γ2L, 8 µM R-mTFD-MPAB or 10 µM pTFD-di-iPr-BnOH.

T1 sequence (P14867 28-456): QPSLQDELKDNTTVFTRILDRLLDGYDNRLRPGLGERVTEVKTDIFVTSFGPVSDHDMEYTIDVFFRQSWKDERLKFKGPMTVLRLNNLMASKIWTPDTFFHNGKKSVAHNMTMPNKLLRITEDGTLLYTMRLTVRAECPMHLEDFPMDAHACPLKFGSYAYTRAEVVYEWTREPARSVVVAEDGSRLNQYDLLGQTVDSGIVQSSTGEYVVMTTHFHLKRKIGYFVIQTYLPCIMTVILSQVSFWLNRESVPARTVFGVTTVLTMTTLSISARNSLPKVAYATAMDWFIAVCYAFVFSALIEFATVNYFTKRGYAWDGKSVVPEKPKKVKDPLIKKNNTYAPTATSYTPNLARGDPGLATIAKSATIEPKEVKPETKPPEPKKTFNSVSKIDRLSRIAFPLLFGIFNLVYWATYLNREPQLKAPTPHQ
T1 sequence (P28472 26-473): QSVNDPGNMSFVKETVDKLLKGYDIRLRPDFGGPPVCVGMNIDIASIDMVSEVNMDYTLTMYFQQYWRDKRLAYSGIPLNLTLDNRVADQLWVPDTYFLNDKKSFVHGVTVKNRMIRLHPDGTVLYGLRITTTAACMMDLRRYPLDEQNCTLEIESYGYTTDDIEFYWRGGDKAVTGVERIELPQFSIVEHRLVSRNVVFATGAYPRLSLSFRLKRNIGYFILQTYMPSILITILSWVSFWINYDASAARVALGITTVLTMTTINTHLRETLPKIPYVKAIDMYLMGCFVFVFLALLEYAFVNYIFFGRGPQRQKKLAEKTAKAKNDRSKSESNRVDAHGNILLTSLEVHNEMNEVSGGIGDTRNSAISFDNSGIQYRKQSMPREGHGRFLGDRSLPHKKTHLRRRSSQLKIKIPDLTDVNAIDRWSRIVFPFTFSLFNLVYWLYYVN
T1 sequence (P18507 40-475 I281C): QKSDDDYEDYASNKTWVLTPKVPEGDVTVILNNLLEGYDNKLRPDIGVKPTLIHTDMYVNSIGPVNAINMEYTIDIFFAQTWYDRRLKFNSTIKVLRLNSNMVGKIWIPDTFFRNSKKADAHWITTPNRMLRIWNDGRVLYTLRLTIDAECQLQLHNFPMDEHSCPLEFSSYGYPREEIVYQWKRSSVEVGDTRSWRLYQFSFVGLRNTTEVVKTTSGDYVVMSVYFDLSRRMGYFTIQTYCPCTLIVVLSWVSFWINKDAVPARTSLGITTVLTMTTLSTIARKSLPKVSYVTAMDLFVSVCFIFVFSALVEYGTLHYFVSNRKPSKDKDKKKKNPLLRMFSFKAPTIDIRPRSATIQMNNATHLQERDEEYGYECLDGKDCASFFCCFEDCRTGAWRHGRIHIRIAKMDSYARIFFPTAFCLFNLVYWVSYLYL
T2 sequence (P14867 28-456 A318C): as the sequence (P14867 28-456) above, with A291C counted along it
T2 sequence (P28472 26-473): as the sequence (P28472 26-473) above
T2 sequence (P18507 40-475): as the sequence (P18507 40-475 I281C) above, with C242I counted along it

Take `CCOC(=O)c1cncn1[C@H](C)c1ccccc1` [etomidate, R-etomidate]: the “SCAMP result, γ2– (M1) I242” value in experiment [1] is “-^[9],6”. Also, the “protection from pCMBS modification (significant reduction of modification ratio vs control, p < 0.05)” value in [1] (γ2I242C (γ–), pCMBS 100 µM x 30 s, […] etomidate or 10 µM pTFD-di-iPr-BnOH, n = 5) is “no protection was inferred”. Also, the “Mutant-function result, γ2– (M1) I242” value in experiment [2] was “-^[9, 15]”. For the same molecule, the “Mutant-function result, α1+ (M2, M3) S270” value in experiment [3] is “-^[13, 15]”. Also, in experiment [4], the “Mutant-function result, β3+ (M2, M3) N265” value (shortened to “Mutant-function result, β3+”) is “+^[13, 15]”. For the same molecule, the “Mutant-function result, γ2– (M1) L246” value in experiment [5] is “-^[9]”. Further, the “modification ratio with anesthetic present, single oocyte example (Fig 2)” value in experiment [6] (setting [13]) is reported as 3.8. Moreover, in [7], the “Mutant-function result, α1– (M1) M236” value is “+^[9], [12]”. The “Mutant-function result, γ2+ (M2, M3) S280” value in experiment [8] was “-^[13, 15]”. Moreover, the “Mutant-function result, γ2+ (M2, M3) S301” value in [9] was “-^[13]”. The “Mutant-function result, β3– (M1) L231” value in experiment [10] is “+^[9]”. Also, the “Mutant-function result, β3– (M1) M227” value in [11] is “-^[9, 15]”. In experiment [12], the “Mutant-function result, α1+ (M2, M3) A291” value is “-^[13]”.

Take `CC(C)c1cc(C2(C(F)(F)F)N=N2)cc(C(C)C)c1CO` [pTFD-di-iPr-BnOH]: in experiment [1], the “SCAMP result, γ2– (M1) I242” value was “-*”. Also, the “Mutant-function result, γ2– (M1) I242” value in experiment [2] was “+^[15]”. The “effect of mutation on receptor modulation by the anesthetic” value in [2] (γ2I242W mutation) and in experiment [3] (α1S270I mutation) was “significantly reduced” each time. In experiment [3], the “Mutant-function result, α1+ (M2, M3) S270” value was “+^[15]”. Further, the “Mutant-function result, β3+” value in experiment [4] was “-^[15]”. Moreover, the “Mutant-function result, γ2+ (M2, M3) S280” value in [8] is “-^[15]”. In experiment [11], the “Mutant-function result, β3– (M1) M227” value was “+^[15]”.

Regarding `C=CCC1(c2cccc(C3(C(F)(F)F)N=N3)c2)C(=O)NC(=O)N(C)C1=O` (stereo not shown) [R-mTFD-MPAB, R-5-allyl-1-methyl-5-(m-trifluoromethyl-diazirynylphenyl) barbituric acid], in [2], the “Mutant-function result, γ2– (M1) I242” value was “-^[9, 15]”. Moreover, the “Mutant-function result, α1+ (M2, M3) S270” value in experiment [3] was “+^[13, 15]”. Further, in [4], the “Mutant-function result, β3+” value was “-^[13, 15]”. In experiment [5], the “Mutant-function result, γ2– (M1) L246” value was “-^[9]”. For the same molecule, in [6] (α1A291C (α+), pCMBS 10 µM x 90 s, […] etomidate, 8 µM R-mTFD-MPAB or 10 µM pTFD-di-iPr-BnOH, n = 5), the “protection from pCMBS modification (significant reduction of modification ratio vs control, p < 0.05)” value was “protection was inferred”. Moreover, the “modification ratio with anesthetic present, single oocyte example (Fig 2)” value in [6] (setting [13]) stood at 2.1. For the same molecule, the “modification ratio lower than control” value in experiment [6] (α1A291Cβ3γ2L, single oocyte examples of Fig 2, control modification ratio 4.0) was found to be 47%. In experiment [7], the “Mutant-function result, α1– (M1) M236” value is “-^[9]”. The “Mutant-function result, γ2+ (M2, M3) S280” value in [8] was “+^[13, 15]”. For the same molecule, in experiment [9], the “Mutant-function result, γ2+ (M2, M3) S301” value was “+^[13]”. In addition, the “Mutant-function result, β3– (M1) L231” value in [10] was “-^[9]”. Also, the “Mutant-function result, β3– (M1) M227” value in experiment [11] is “+^[9, 15],”. Besides, the “Mutant-function result, α1+ (M2, M3) A291” value in experiment [12] is “+^[13]”.
